A short description of experiment [1]: Cytotoxicity against human THP1-Dual KO-STING cells assessed as inhibition of cell growth by MTS assay. In kind it is functional, cell-based.
The target of experiment [2] is T1, Stimulator of interferon genes protein (Homo sapiens, UniProt Q86WV6). Nature of the experiment: Agonist activity at STING in human THP1-Dual cells incubated for 20 hrs by Quanti-luc reagent based assay. Format: cell-based.
Experiment [3] has as its system THP1-Dual. Nature of the experiment: Cytotoxicity against human THP1-Dual habouring STING assessed as inhibition of cell growth by MTS assay. Format: functional, cell-based.
In experiment [4] the target is T1, Stimulator of interferon genes protein. Description: Agonist activity at STING in human […] KO-STING cells incubated for 20 hrs by Quanti-luc reagent based assay. Format: cell-based, THP1-Dual KO-STING.

Where only a bound is given, the exact number is not on record here.

T1 sequence (Q86WV6 whole entry): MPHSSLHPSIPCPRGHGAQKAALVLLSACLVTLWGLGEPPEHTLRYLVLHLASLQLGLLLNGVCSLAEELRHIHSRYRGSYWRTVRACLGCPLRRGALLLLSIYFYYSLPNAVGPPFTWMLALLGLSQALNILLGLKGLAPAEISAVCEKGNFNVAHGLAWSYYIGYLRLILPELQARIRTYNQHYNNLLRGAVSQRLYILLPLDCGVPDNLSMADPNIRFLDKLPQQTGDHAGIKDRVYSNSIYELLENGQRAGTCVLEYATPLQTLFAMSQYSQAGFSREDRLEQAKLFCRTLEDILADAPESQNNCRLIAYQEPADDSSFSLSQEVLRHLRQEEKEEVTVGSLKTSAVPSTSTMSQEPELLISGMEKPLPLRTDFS

Take `CCn1nc(C)cc1C(=O)Nc1nc2cc(C(N)=O)cc(OC)c2n1NCCCC(=O)NCc1ccc(Oc2ccccc2)cc1`: the IC50 in experiment [1] and in experiment [3] was more than 100 µM throughout. Besides, the figures for the concentration giving a half-maximal response (EC50) in experiment [2] and in experiment [4] were 28.8 µM and more than 100 µM, respectively.
For `CCn1nc(C)cc1C(=O)Nc1nc2cc(C(N)=O)cc(OC)c2n1NCCCNC(=O)NCc1ccccc1`, the IC50 in experiment [1] and in experiment [3] was more than 100 µM each time. Moreover, the EC50 in experiment [2] was 8.52 µM; in experiment [4], more than 100 µM.
As for `CCn1nc(C)cc1C(=O)Nc1nc2cc(C(N)=O)cc(OC)c2n1C/C=C/CNC(=O)Cc1ccc(C(F)(F)F)cc1`, the IC50 in experiment [1] and in experiment [3] was more than 100 µM each time. Further, the half-maximal effective concentration (EC50) in experiment [2] and in experiment [4] was more than 100 µM each time.
Regarding `CCn1nc(C)cc1C(=O)Nc1nc2cc(C(N)=O)cc(OCCCN3CCOCC3)c2n1NCCCC(=O)NCc1ccc(F)cc1`, the half-maximal inhibitory concentration (IC50) in experiment [1] and in experiment [3] was more than 100 µM in each case. Besides, the 50% effective concentration (EC50) in experiment [2] was 9.73 µM; in experiment [4] it was more than 100 µM.
As to `CCn1nc(C)cc1C(=O)Nc1nc2cc(C(N)=O)cc(OC)c2n1NCCCC(=O)NCc1cc(F)cc(F)c1`, the IC50 in experiment [1] and in experiment [3] was more than 100 µM each time. Moreover, the half-maximal effective concentration (EC50) in experiment [2] is 5.14 µM; in experiment [4], more than 100 µM.
For the compound `CCn1nc(C)cc1C(=O)Nc1nc2cc(C(N)=O)cc(OC)c2n1C/C=C/CNC1CCC(N(C)C)CC1` (stereo unspecified), the IC50 in experiment [1] and in experiment [3] was more than 100 µM in each case. The EC50 in experiment [2] and in experiment [4] was more than 100 µM throughout.
Turning to `CCn1nc(C)cc1C(=O)Nc1nc2cc(C(N)=O)cc(OC)c2n1CCOCCNC(=O)c1ccc2ccccc2c1`, the IC50 in experiment [1] and in experiment [3] was more than 100 µM each time. In addition, the EC50 in experiment [2] and in experiment [4] was more than 100 µM throughout.
Regarding `CCn1nc(C)cc1C(=O)Nc1nc2cc(C(N)=O)cc(OC)c2n1C/C=C/CNC(=O)c1ccc2ncccc2c1`, the concentration for half-maximal inhibition (IC50) in experiment [1] and in experiment [3] was more than 100 µM in each case. Also, the half-maximal effective concentration (EC50) in experiment [2] and in experiment [4] was more than 100 µM throughout.
As to `CCn1nc(C)cc1C(=O)Nc1nc2cc(C(N)=O)cc(OC)c2n1CCCC(=O)NCc1ccccc1`, the IC50 in experiment [1] and in experiment [3] was more than 100 µM throughout. The values for the EC50 in experiment [2] and in experiment [4] were 4.13 µM and more than 100 µM, respectively.
For the compound `CCn1nc(C)cc1C(=O)Nc1nc2cc(C(N)=O)cc(OCC3CC3)c2n1NCCCNC(=O)c1ccc2ccccc2c1`, the IC50 in experiment [1] was 12.1 µM; in experiment [3], more than 100 µM. In addition, the concentration giving a half-maximal response (EC50) in experiment [2] is 1.12 µM; in experiment [4], more than 100 µM.
On to `CCn1nc(C)cc1C(=O)Nc1nc2cc(C(N)=O)cc(OCC3CC3)c2n1NCCCC(=O)NCc1ccc(F)cc1`, for which the IC50 in experiment [1] and in experiment [3] was more than 100 µM each time. The EC50 in experiment [2] was 1.42 µM; in experiment [4], more than 100 µM.
Take `CCn1nc(C)cc1C(=O)Nc1nc2cc(C(N)=O)cc(OC)c2n1CCCNC(=O)c1ccc(-c2ccccc2)cc1`: the IC50 in experiment [1] and in experiment [3] was more than 100 µM throughout. Moreover, the 50% effective concentration (EC50) in experiment [2] and in experiment [4] was more than 100 µM each time.
Consider `CCn1nc(C)cc1C(=O)Nc1nc2cc(C(N)=O)cc(OC)c2n1C/C=C/CNC(=O)c1cc(F)nc(F)c1`, for which the half-inhibitory concentration (IC50) in experiment [1] and in experiment [3] was more than 100 µM throughout. The EC50 in experiment [2] and in experiment [4] was more than 100 µM each time.
As to `CCn1nc(C)cc1C(=O)Nc1nc2cc(C(N)=O)cc(OC)c2n1C/C=C/CNC(=O)c1ccccn1`, the half-inhibitory concentration (IC50) in experiment [1] and in experiment [3] was more than 100 µM each time. The EC50 in experiment [2] and in experiment [4] was more than 100 µM each time.
As to `CCn1nc(C)cc1C(=O)Nc1nc2cc(C(N)=O)cc(OCC3COC3)c2n1NCCCC(=O)NCc1ccc(F)cc1`, the half-maximal inhibitory concentration (IC50) in experiment [1] and in experiment [3] was more than 100 µM each time. The results for the half-maximal effective concentration (EC50) in experiment [2] and in experiment [4] were 7.13 µM and more than 100 µM, respectively.
For `CCn1nc(C)cc1C(=O)Nc1nc2cc(C(N)=O)cc(OC)c2n1C/C=C/Cn1c(C)nc2cc(C(N)=O)ccc21`, the IC50 in experiment [1] and in experiment [3] was more than 100 µM in each case. Besides, the EC50 in experiment [2] and in experiment [4] was more than 100 µM throughout.
Consider `CCn1nc(C)cc1C(=O)Nc1nc2cc(C(N)=O)cc(OC)c2n1NCCCC(=O)NCc1ccc(C(F)(F)F)cc1`, for which the IC50 in experiment [1] and in experiment [3] was more than 100 µM each time. Also, the EC50 in experiment [2] was 13 µM; in experiment [4], more than 100 µM.
As for `CCn1nc(C)cc1C(=O)Nc1nc2cc(C(N)=O)cc(OC)c2n1CCCN1CCC(NC(=O)c2ccc3ccccc3c2)CC1`, the IC50 in experiment [1] and in experiment [3] was more than 100 µM each time. Further, the concentration for a half-maximal effect (EC50) in experiment [2] and in experiment [4] was more than 100 µM each time.
`CCn1nc(C)cc1C(=O)Nc1nc2cc(C(N)=O)cc(OCCCOC)c2n1NCCCNC(=O)c1ccc2ccccc2c1`: the values for the IC50 in experiment [1] and in experiment [3] were 14.8 µM and 10.6 µM, respectively. Moreover, the EC50 in experiment [2] is 0.53 µM; in experiment [4] it was more than 100 µM.
In the case of `CCn1nc(C)cc1C(=O)Nc1nc2cc(C(N)=O)cc(OC)c2n1NCCCNC(=O)Nc1ccc2ccccc2c1`, the concentration for half-maximal inhibition (IC50) in experiment [1] and in experiment [3] was more than 100 µM in each case. The EC50 in experiment [2] and in experiment [4] was more than 100 µM in each case.
`CCn1nc(C)cc1C(=O)Nc1nc2cc(C(N)=O)cc(OC)c2n1NCCCC(=O)N(C)Cc1ccccc1`: the half-maximal inhibitory concentration (IC50) in experiment [1] and in experiment [3] was more than 100 µM throughout. In addition, the 50% effective concentration (EC50) was 11.2 µM in experiment [2] and more than 100 µM in experiment [4].
As for `CCn1nc(C)cc1C(=O)Nc1nc2cc(C(N)=O)cc(OCCCN3CCOCC3)c2n1NCCCNC(=O)c1ccc2ccccc2c1`, the IC50 in experiment [1] came to 28.1 µM; in experiment [3] it was 18.6 µM. Also, the values for the EC50 in experiment [2] and in experiment [4] were 2.19 µM and more than 100 µM, respectively.
As to `CCn1nc(C)cc1C(=O)Nc1nc2cc(C(N)=O)cc(OC)c2n1C/C=C/CNC(=O)c1ccc(Cl)cc1`, the IC50 in experiment [1] and in experiment [3] was more than 100 µM throughout. In addition, the EC50 in experiment [2] and in experiment [4] was more than 100 µM throughout.
In the case of `CCn1nc(C)cc1C(=O)Nc1nc2cc(C(N)=O)cc(OC)c2n1NCCCC(=O)NCc1ccc(Cl)cc1`, the half-inhibitory concentration (IC50) in experiment [1] and in experiment [3] was more than 100 µM each time. The EC50 is 3.22 µM in experiment [2] and more than 100 µM in experiment [4].
As to `CCn1nc(C)cc1C(=O)Nc1nc2cc(C(N)=O)cc(OC)c2n1NCCCC(=O)NCc1ccccc1F`, the IC50 in experiment [1] and in experiment [3] was more than 100 µM in each case. Besides, the figures for the concentration giving a half-maximal response (EC50) in experiment [2] and in experiment [4] were 4.17 µM and more than 100 µM, respectively.
Regarding `CCn1nc(C)cc1C(=O)Nc1nc2cc(C(N)=O)cc(OC)c2n1C/C=C/CNC(=O)c1ccc(F)cc1`, the IC50 in experiment [1] and in experiment [3] was more than 100 µM throughout. Also, the 50% effective concentration (EC50) in experiment [2] and in experiment [4] was more than 100 µM throughout.
Consider `CCn1nc(C)cc1C(=O)Nc1nc2cc(C(N)=O)cc(OC)c2n1C/C=C/CNC(=O)C1CCCC1`, for which the concentration for half-maximal inhibition (IC50) in experiment [1] and in experiment [3] was more than 100 µM throughout. Moreover, the EC50 in experiment [2] and in experiment [4] was more than 100 µM throughout.
As for `CCn1nc(C)cc1C(=O)Nc1nc2cc(C(N)=O)cc(OC)c2n1CCCC(=O)Nc1ccccc1`, the IC50 in experiment [1] and in experiment [3] was more than 100 µM throughout. Besides, the half-maximal effective concentration (EC50) in experiment [2] is 9.81 µM; in experiment [4], more than 100 µM.
With `CCn1nc(C)cc1C(=O)Nc1nc2cc(C(N)=O)cc(OC)c2n1Cc1cn(CCc2ccccc2)nn1`, the 50% inhibitory concentration (IC50) in experiment [1] and in experiment [3] was more than 100 µM in each case. Also, the 50% effective concentration (EC50) in experiment [2] and in experiment [4] was more than 100 µM in each case.

Values taken from ChEMBL document CHEMBL5331071, “Structure-activity relationship study of amidobenzimidazole derivatives as stimulator of interferon genes (STING) agonists” (Eur J Med Chem, 2023).
